Measurements from patent publication US20250223331A1, “GLP-1/GIP DUAL-TARGETED POLYPEPTIDE AND FUSION PROTEIN AND APPLICATIONS THEREOF” (SUNSHINE LAKE PHARMA CO., LTD., priority 2021, published 2025).
Marks after values point to notes of the source that are not given here. Where no end group is shown, it is not given here.

How the values were obtained:
DIO mice = test: in vivo efficacy in DIO model: body weight, food intake, liver, blood biochemistry
Description: Experimental methods: C57/BL6 mice were randomly divided into normal group NFD and model group HFD at the fifth week of age, and the normal group was fed with ordinary maintenance diet, while the model group was fed with high-fat diet D12492. Changes in body weight and food intake in mice were monitored every 3 weeks. After 16 weeks of feeding, the body weight of mice in the model group and the normal group were (47.9±3.4) g and (29.6±1.5) g, respectively, and the difference between the two groups was statistically significant. The normal group was divided into the control group, and the model group mice that were successfully modeled were divided into Vehicle group, Semaglutide group, HEC-G115 group and HEC-G124 group, with 10 mice in each group. For the groups of Semaglutide, HEC-G115 and HEC-G124, the corresponding drug was injected subcutaneously in each group, and PBS was injected subcutaneously in the Vehicle group. […] Weight and food intake were measured before each dose. After 3 weeks of administration, an intraperitoneal glucose tolerance test was performed. After 72 h of the last administration, samples were collected, liver weight was recorded, and liver pathological status and blood biochemical indexes were detected in each group.

db/db mice = test: in vivo efficacy in db/db mouse model, blood glucose; conditions: 10 nmol/kg s.c.
Protocol: Methods: 7-8 week old db/db mice were randomly divided into 3 groups (Model group, Semaglutide group, HEC-G20 group) according to blood glucose and body weight, with 9 mice in each group. For the groups of Semaglutide (Semaglutide was purchased from Novo Nordisk, lot number was JP52092) and HEC-G20, the corresponding drug was administered subcutaneously into the mice at a dose of 10 nmol/kg for each group, and for the Model group, the corresponding vehicle was injected subcutaneously. The Semaglutide group was dosed once a day, and the HEC-G20 group was dosed twice a week for a total of 4 weeks, and animal blood glucose was tested before each dose.

GIPR = biological target: T1, GIPR (Homo sapiens, UniProt P48546); test: cAMP assay, in vitro activity of polypeptides, HEK293-GIPR cells; format: cell-based; conditions: read-out: Ec50(nM) of the peptide GIPR
T1 construct: expressed in transfected cells; host or cells: HEK293 (pcDNA3.1, G418-selected single clone)
T1 sequence (P48546 22-466): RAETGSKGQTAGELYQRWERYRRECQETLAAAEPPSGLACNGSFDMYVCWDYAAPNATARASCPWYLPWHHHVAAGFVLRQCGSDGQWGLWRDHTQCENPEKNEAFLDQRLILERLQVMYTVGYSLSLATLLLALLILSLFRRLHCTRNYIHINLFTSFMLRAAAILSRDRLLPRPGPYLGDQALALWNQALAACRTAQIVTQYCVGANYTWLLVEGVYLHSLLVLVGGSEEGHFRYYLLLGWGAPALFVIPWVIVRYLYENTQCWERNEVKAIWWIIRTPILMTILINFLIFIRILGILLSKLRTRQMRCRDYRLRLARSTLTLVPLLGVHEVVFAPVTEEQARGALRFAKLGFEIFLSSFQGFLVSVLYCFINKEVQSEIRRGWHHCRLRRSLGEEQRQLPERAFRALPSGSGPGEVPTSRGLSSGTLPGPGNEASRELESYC
Protocol: (§1) The digested product was electrophoresed on 1% agarose gel and the target band was cut out with a clean blade, then a gel recovery kit was used to recover the target fragment. The specific experimental operations are carried out according to the kit instructions; • 3) The target fragment enzymatic digestion recovery product and vector plasmid pcDNA3.1 fragment were connected through T4 ligase and transformed into DH5a competent cells, then single colonies were isolated by spreading on plates, and the transformants were selected and expanded for enzyme digestion verification and sequencing verification. • 4) 200 mL of the bacterial liquid obtained in inoculation step 3) and verified by sequencing to contain the fusion protein of the target product was used for plasmid extraction. The kit used was PureLink HiPure Plasmid Maxiprep Kit, and according to the instructions. […] Finally, the ethanol precipitation method was used to recover the plasmid. • 5) The host cells were HEK293, one day before transfection, the cells were spread into a 6-well plate at a density of 2×10^6 cells/well, and the addition volume was 1 mL/well.
(§2) Using a cAMP detection kit (Cisbio, 62AM6PEC) to detect cAMP produced by the recipient cells according to the steps described in the operating instructions. […] If the mixture was not completely melted within 1.5 min, the cells were added dropwise to a 15 mL centrifuge tube containing 8 mL warm culture medium on a clean bench, then centrifuged at 900 rpm for 5 min, the supernatant was discarded, and the cells were re-suspended with 1 mL complete culture medium (15 times by pipetting).

GLP-1R = GLP-1R (Homo sapiens, UniProt P43220); test: cAMP assay, in vitro activity of polypeptides, HEK293-GLP-1R cells; format: cell-based; parameters: expressed in transfected cells; host or cells: HEK293 (pcDNA3.1, G418-selected single clone); conditions: for EC50: HEK293-GLP-1R, cAMP, read-out: Ec50(nM) of the peptide GLP-1R; for GLP-1R agonistic activity: peptides
Sequence of GLP-1R (P43220 24-463, species assumed): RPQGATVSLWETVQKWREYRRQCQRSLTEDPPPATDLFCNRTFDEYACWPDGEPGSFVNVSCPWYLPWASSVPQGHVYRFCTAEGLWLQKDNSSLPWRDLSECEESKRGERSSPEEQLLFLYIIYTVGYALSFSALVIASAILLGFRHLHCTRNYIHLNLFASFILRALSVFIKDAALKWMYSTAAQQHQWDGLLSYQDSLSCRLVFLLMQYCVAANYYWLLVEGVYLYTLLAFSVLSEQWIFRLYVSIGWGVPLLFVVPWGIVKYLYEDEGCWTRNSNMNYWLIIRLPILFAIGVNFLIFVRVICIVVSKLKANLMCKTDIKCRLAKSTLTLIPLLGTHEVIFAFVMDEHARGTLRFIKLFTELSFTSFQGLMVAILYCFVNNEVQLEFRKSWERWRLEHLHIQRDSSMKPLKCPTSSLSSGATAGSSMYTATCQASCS
Protocol: as §1, §2

[1] = long-term administration 10 nmol/kg s.c., 72 h after last administration
[2] = long-term administration 10 nmol/kg s.c., blood biochemistry

Semaglutide [reference compound]
Cumulative food intake D 7-10 (DIO mice; 10 nmol/kg s.c. repeated, D 7-10): 15.7 g/pcs
Weight growth rate D 10 (DIO mice; 10 nmol/kg s.c. repeated, D 10): −17.6 ± 5.1%
Cumulative food intake D 11-13 (DIO mice; 10 nmol/kg s.c. repeated, D 11-13): 20.7 g/pcs
Weight growth rate D 13 (DIO mice; 10 nmol/kg s.c. repeated, D 13): −21.3 ± 5.8%
Cumulative food intake D 14-16 (DIO mice; 10 nmol/kg s.c. repeated, D 14-16): 27.9 g/pcs
Weight growth rate D 16 (DIO mice; 10 nmol/kg s.c. repeated, D 16): −22.3 ± 5.3%
Cumulative food intake D 17-19 (DIO mice; 10 nmol/kg s.c. repeated, D 17-19): 35.7 g/pcs
Weight growth rate D 19 (DIO mice; 10 nmol/kg s.c. repeated, D 19): −21.6 ± 5.6%
Cumulative food intake D 20-22 (DIO mice; 10 nmol/kg s.c. repeated, D 20-22): 41.8 g/pcs
Weight growth rate D 22 (DIO mice; 10 nmol/kg s.c. repeated, D 22): −24.2 ± 6.2%
Cumulative food intake D 23-27 (DIO mice; 10 nmol/kg s.c. repeated, D 23-27): 55.0 ^a g/pcs
Weight growth rate D 25 (DIO mice; 10 nmol/kg s.c. repeated, D 25): −23.2 ± 6.0^a %
Cumulative food intake D 0 (DIO mice; 10 nmol/kg s.c., D 0): 0.7 g/pcs
Weight growth rate D 0 (DIO mice; 10 nmol/kg s.c., D 0): 0.0 ± 0.0%
Cumulative food intake D 1 (DIO mice; 10 nmol/kg s.c., D 1): 1.8 g/pcs
Weight growth rate D 1 (DIO mice; 10 nmol/kg s.c., D 1): −5.3 ± 1.0%
Cumulative food intake D 2 (DIO mice; 10 nmol/kg s.c., D 2): 3.2 g/pcs
Weight growth rate D 2 (DIO mice; 10 nmol/kg s.c., D 2): −7.2 ± 1.2%
Cumulative food intake D 3 (DIO mice; 10 nmol/kg s.c., D 3): 5.3 g/pcs
Weight growth rate D 3 (DIO mice; 10 nmol/kg s.c., D 3): −8.2 ± 1.6%
Cumulative food intake D 4 (DIO mice; 10 nmol/kg s.c., D 4): 8.2 g/pcs
Weight growth rate D 4 (DIO mice; 10 nmol/kg s.c., D 4): −7.4 ± 2.8%
Cumulative food intake D 5 (DIO mice; 10 nmol/kg s.c., D 5): 10.2 g/pcs
Weight growth rate D 5 (DIO mice; 10 nmol/kg s.c., D 5): −6.7 ± 3.7%
Cumulative food intake D 6 (DIO mice; 10 nmol/kg s.c., D 6): 12.5 g/pcs
Weight growth rate D 6 (DIO mice; 10 nmol/kg s.c., D 6): −8.2 ± 3.8%
Weight growth rate D 7 (DIO mice; 10 nmol/kg s.c., D 7): −8.1 ± 4.7%
Liver (DIO mice; liver weight, long-term administration 10 nmol/kg s.c., 72 h after last administration): 1.0 ± 0.2 ^a g
Body weight (DIO mice; [1]): 33.0 ± 2.7^a g
Liver index (DIO mice; [1]): 3.0 ± 0.0 ^a %
ALT (DIO mice; [2]): 19.3 ± 4.3 ^a U/L
AST (DIO mice; [2]): 109.4 ± 9.2 ^a U/L
CHOL (DIO mice; [2]): 2.7 ± 0.4 ^a mmol/L
TRIGL (DIO mice; [2]): 0.7 ± 0.1 mmol/L
Random blood glucose 1.5 h (db/db mice; 1.5 h): 15.9 ± 3.4 mM
Random blood glucose 5 h (db/db mice; 5 h): 15.4 ± 4.0 mM
Random blood glucose 7 h (db/db mice; 7 h): 16.3 ± 4.2 mM
Random blood glucose D 0 (db/db mice; Semaglutide once a day, HEC-G20 twice a week, D 0): 25.7 ± 3.7 mM
Random blood glucose D 3 (db/db mice; Semaglutide once a day, HEC-G20 twice a week, D 3): 11.6 ± 4.1 mM
Random blood glucose D 7 (db/db mice; Semaglutide once a day, HEC-G20 twice a week, D 7): 14.9 ± 4.2 mM
Random blood glucose D 10 (db/db mice; Semaglutide once a day, HEC-G20 twice a week, D 10): 17.1 ± 4.2 mM
Random blood glucose D 14 (db/db mice; Semaglutide once a day, HEC-G20 twice a week, D 14): 18.1 ± 3.1 mM
Random blood glucose D 17 (db/db mice; Semaglutide once a day, HEC-G20 twice a week, D 17): 18.5 ± 3.0 mM
Random blood glucose D 21 (db/db mice; Semaglutide once a day, HEC-G20 twice a week, D 21): 18.0 ± 3.3 mM
Random blood glucose D 24 (db/db mice; Semaglutide once a day, HEC-G20 twice a week, D 24): 19.9 ± 2.2 ^a mM

YGEGTFTSDYSILLDKIAQREFIEWLLAGGPSSGAPPPS [CG126, YGEGTFTSDYSILLDKIAQREFIEWLLAG GPSSGAPPPS]
EC50 (GIPR): 0.027 nM
EC50 (GLP-1R): 0.918 nM

YSEGTFTSDYSILLDKIAQQDFVEWLLAGGPSSGAPPPS [CG133, YSEGTFTSDYSILLDKIAQQDFVEWLLAG GPSSGAPPPS]
EC50 (GIPR): 0.017 nM
EC50 (GLP-1R): 8.18 nM
GLP-1R agonistic activity (GLP-1R): weaker GLP-1R agonistic activities

YSEGTFTSDYSILLDKIAQQEFIEWLIAGGPSSGAPPPS [CG135, YSEGTFTSDYSILLDKIAQQEFIEWLIAG GPSSGAPPPS]
EC50 (GIPR): 0.015 nM
EC50 (GLP-1R): 0.558 nM

YSEGTFTSDYSILLDKIAQQEFIEWLLAGGPSSGAPPPS [CG134, YSEGTFTSDYSILLDKIAQQEFIEWLLAG GPSSGAPPPS]
EC50 (GIPR): 0.012 nM
EC50 (GLP-1R): 2.15 nM
GLP-1R agonistic activity (GLP-1R): weaker GLP-1R agonistic activities

YSEGTFTSDYSILLDKIAQRAFIEWLLAGGPSSGAPPPS [CG121, YSEGTFTSDYSILLDKIAQRAFIEWLLAG GPSSGAPPPS]
EC50 (GIPR): 0.018 nM
EC50 (GLP-1R): 0.322 nM

YSEGTFTSDYSILLDKIAQRAFVQWLIAGGPSSGAPPPS [CG125, YSEGTFTSDYSILLDKIAQRAFVQWLIAG GPSSGAPPPS]
EC50 (GIPR): 0.073 nM
EC50 (GLP-1R): 0.205 nM

YSEGTFTSDYSILLDKIAQREFIEWLIAGGPSSGAPPPS [CG122, YSEGTFTSDYSILLDKIAQREFIEWLIAG GPSSGAPPPS]
EC50 (GIPR): 0.016 nM
EC50 (GLP-1R): 0.191 nM

YSEGTFTSDYSILLDKIAQREFIEWLLAGGPSSGAPPPS [CG115, YSEGTFTSDYSILLDKIAQREFIEWLLAG GPSSGAPPPS]
EC50 (GIPR): 0.005 nM
EC50 (GLP-1R): 0.291 nM

YSEGTFTSDYSILLDKIAQREFVQWLIAGGPSSGAPPPS [CG124, YSEGTFTSDYSILLDKIAQREFVQWLIAG GPSSGAPPPS]
EC50 (GIPR): 0.041 nM
EC50 (GLP-1R): 0.232 nM

YSEGTFTSDYSILLDKIAQREFVQWLLAGGPSSGAPPPS [CG123, YSEGTFTSDYSILLDKIAQREFVQWLLAG GPSSGAPPPS]
EC50 (GIPR): 0.044 nM
EC50 (GLP-1R): 0.879 nM

YSEGTFTSDYSILLDKKAQQDFIEWLIAGGPSSGAPPPS [CG137, YSEGTFTSDYSILLDKKAQQDFIEWLIAG GPSSGAPPPS]
EC50 (GIPR): 0.061 nM
EC50 (GLP-1R): 0.25 nM

YSEGTFTSDYSILLDKKAQQDFIEWLLAGGPSSGAPPPS [CG136, YSEGTFTSDYSILLDKKAQQDFIEWLLAG GPSSGAPPPS]
EC50 (GIPR): 0.05 nM
EC50 (GLP-1R): 1.11 nM

YSEGTFTSDYSILLDKKAQRDFIEWLLAGGPSSGAPPPS [CG127, YSEGTFTSDYSILLDKKAQRDFIEWLLAG GPSSGAPPPS]
EC50 (GIPR): 0.084 nM
EC50 (GLP-1R): 0.364 nM
